Measurements published in patent US4176126A, “Novel corticoids” (Schering Aktiengesellschaft, priority 1976, dated 1979).
Read-outs that look alike come from different tables or passages of the source.

Legend:
[1] = tested on: skin (stratum corneum stripped, hyperemia); experiment: vasoconstriction test (topical ointment on stripped skin, skin color value); assay type: in vivo, human volunteers; conditions: concentration 0.00001%, untreated skin = 100, stripped skin = 0
Procedure: The local anti-inflammatory activity of the corticoids can be determined by means of the conventional vasoconstriction test.
On the backs of persons volunteering for the experiment, the stratum corneum was split up by the application and removal of an adhesive strip having a width of 2 cm. applied twenty times at the same spot, thus producing a pronounced hyperemia. Within the stripped area, 50 mg of an ointment preparation were applied to each one of a number of marked zones of a size of 4 cm^2. The ointment base without active ingredient served as the blank value. The color value of the untreated skin was set at 100 while that of the stripped skin was set at 0. The skin color value under vasoconstriction was correspondingly evaluated between 0 and 100.

thymus = experiment: thymolysis test (oral, adrenalectomized rats, thymus weight); assay type: in vivo, SPF rats; conditions: Rattus norvegicus, 72 h, read-out: Thymolysis ED50
Procedure: The systemic activity of the compounds of this invention was determined as follows with the aid of the well-known thymolysis test:
SPF [specific-pathogen free] rats weighing 70- 110 g were adrenalectomized under ether narcosis. Six animals, respectively, formed each test group and received orally over a period of three days a defined amount of the test compound. On the fourth day, the animals were sacrificed and the weight of their thymus determined. The control animals were treated in the same way, but received a benzyl benzoate-castor -castor oil mixture without the test compound. From the thus-measured thymus weights, the amount of test compound at which a 50% thymolysis was observed was conventionally determined.

paw edema = experiment: adjuvant-edema test (oral, Mycobacterium butyricum paw edema); assay type: in vivo, SPF rats; conditions: Rattus norvegicus, read-out: Adjuvant Edema Test ED50
Procedure: Furthermore, the systemic activity was determined with the aid of the adjuvant-edema test as follows:
SPF rats weighing 130-150 g were injected in the right hind paw with 0.1 ml of a 0.5% Mycobacterium butyricum suspension (obtainable from the U.S. company, Difco), in order to induce a center of inflammation. Prior to injection, the paw volume of the rats was measured. Twenty four hours after injection, the paw volume was measured once again to determine the extent of the edema. Thereafter, varying amounts of the test compound, was administered orally to the rats. After another 24 hours, the paw volume was again determined.
The control animals were treated in the same way but without any test compound.
From the thus-obtained paw volumes, the amount of test compound which was required to achieve a 50% reduction the paw edema was conventionally determined. Difluocotolone 21-valerate was also utilized in these tests as the comparison compound.

[2] = oral, three days, 50% thymolysis, adrenalectomized rats, systemic activity
[3] = oral, 50% reduction of paw edema, systemic activity

| Structure (SMILES) | Vasoconstriction after 4 Hours [1] | Vasoconstriction after 8 Hours [1] | ED50 (thymus; po) | ED50 (paw edema; po) | ED50 (thymus; [2]) | ED50 (paw edema; [3]) |
| --- | --- | --- | --- | --- | --- | --- |
| CCCCC(=O)OCC(=O)[C@H]1[C@H](C)C[C@H]2[C@@H]3C[C@H](F)C4=CC(=O)C=C[C@]4(C)[C@@]3(F)[C@@H](O)C[C@@]21C [I, 6α, 9α-difluoro-11β-hydroxy-16α-methyl-21-valeryloxy-1,4-pregnadiene-3,20-dione, reference compound] | 33% | 36% | 0.03 mg/kg | 0.3 mg/kg | – | – |
| CC(C)(C)C(=O)OCC(=O)[C@@]1(OC(=O)c2ccccc2)CC[C@H]2C3=C([C@@H](O)C[C@@]21C)[C@@]1(C)C=CC(=O)C=C1CC3 [II, 17α-Benzoyloxy-11β-hydroxy-21-trimethylacetoxy-1,4,8(9)-pregnatriene-3,20-dione] | 30% | 33% | – | – | 5.5 mg/kg | 10 mg/kg |
| CC(=O)O[C@]1(C(=O)CCl)CC[C@H]2C3=C([C@@H](O)C[C@@]21C)[C@@]1(C)C=CC(=O)C=C1CC3 [III, 17α-Acetoxy-21-chloro-11β-hydroxy-1,4,8(9)-pregnatriene-3,20-dione] | 42% | 42% | – | – | 3.6 mg/kg | 3.6 mg/kg |
| CCC(=O)O[C@]1(C(=O)CCl)CC[C@H]2C3=C([C@@H](O)C[C@@]21C)[C@@]1(C)C=CC(=O)C=C1CC3 [IV, 21-Chloro-11β-hydroxy-17α-propionyloxy-1,4,8(9)-pregnatriene-3,20-dione] | 47% | 45% | – | – | 2 mg/kg | 2 mg/kg |
| C[C@]12C=CC(=O)C=C1CCC1=C2[C@@H](O)C[C@@]2(C)[C@H]1CC[C@]2(OC(=O)c1ccccc1)C(=O)CCl [V, 17α-Benzoyloxy-21-chloro-11β-hydroxy-1,4,8(9)-pregnatriene-3,20-dione] | 52% | 64% | – | – | 1 mg/kg | 1 mg/kg |
